Results taken from ChEMBL document CHEMBL1157539, “Thousands of chemical starting points for antimalarial lead identification” (Nature, 2010).

What follows are compounds tested on Plasmodium falciparum (assay: GSK_TCMDC: Inhibition of Plasmodium falciparum 3D7 in whole erythrocytes, using parasite LDH activity as an index of growth.). Conditions: Plasmodium falciparum, 3D7.
Type: functional, organism-based
CCN(CC)CCN(Cc1ccc(-c2ccc(C(F)(F)F)cc2)cc1)C(=O)Cn1c(CCc2cc(F)ccc2F)nc(=O)c2ccccc21 was tested, and the XC50 was 828 nM.
In the case of CC(C)N1CCC(N(Cc2ccc(-c3ccc(C(F)(F)F)cc3)cc2)C(=O)Cn2c(CCc3cccc(F)c3F)cc(=O)c3c2CCC3)CC1, the XC50 is reported as 617 nM.
Cc1ccc(OCC2CCN(c3ncc(C(=O)NCCCN4CCCC4=O)cc3Cl)CC2)cc1 showed an XC50 of 1260 nM.
For Cc1cccc2nc(-c3ccc(-c4cccc(NC(=O)C(C)CN5CCN(C)CC5)c4)cc3)[nH]c12 (stereo not given), the XC50 was 739 nM.
In the case of O=C(Nc1cccc(-c2csc(-c3nc4ccccc4[nH]3)c2)c1)c1ccoc1, the XC50 is reported as 211 nM.
O=C(NC1CCN(Cc2cccc(C(F)(F)F)c2)CC1)c1ccc(-c2cccc(Cl)c2)s1 showed an XC50 of 1130 nM.
Cn1nccc1C(=O)NCCNCc1cccc(-c2ccc(-c3nc4ccccc4[nH]3)s2)c1 was tested, and the XC50 was 303 nM.
Work on Cc1ccc(NC(=O)c2ccc(-c3cc4cc(Cl)c(Cl)cc4[nH]3)cc2)cc1OCCN1CCCC1 yielded an XC50 of 991 nM.
With CC(C)CCN1CCCN(Cc2cccc(NC(=O)c3cc4ccccc4s3)c2)CC1 the XC50 was 917 nM.
With CC1c2cccc(O)c2CCN1CCc1ccc(Cl)c(Cl)c1 (stereo not given) the XC50 was 138 nM.
Work on COC(=O)c1ccc(CCC(C)NCC(O)c2cccc(C(F)(F)F)c2)cc1 (stereo not given) yielded an XC50 of 411 nM.
In the case of COc1ccc(CC(C)NCC(O)c2ccc(Cl)c(Cl)c2)cc1 (stereo not given), the XC50 is reported as 717 nM.
Nc1c2c(nc3ccc(NC(=O)Cc4ccccc4)cc13)CCCC2 gave an XC50 of 755 nM.
For O=C(NCCc1ccccc1)N(Cc1cccc(-c2ccc(CNCCc3ccccc3)cc2)c1)C1CCN(Cc2ccccc2)CC1, the XC50 was 613 nM.
In the case of CCCN(CCCN(CCCN(CCC)C(C)C)c1cc(C)nc(Nc2ccc(Cl)cc2)n1)C(C)C, the XC50 is reported as 113 nM.
Work on c1cncc(Oc2ccc(Nc3ccnc4cc(-c5cccc(CNCCN6CCOCC6)c5)ccc34)cc2)c1 yielded an XC50 of 112 nM.
With Cc1csc2nc(-c3ccccn3)nc(Nc3ccc4ncsc4c3)c12 the XC50 was 1110 nM.
COc1ccc2ncc(F)c(CCN3CC(O)C(CNCc4ccc5oc(=O)ccc5c4)C3)c2n1 (stereo not given) gave an XC50 of 949 nM.
CC(C)c1ccc(NC(=O)NC2CCN(CCCCCNC(=O)/C=C/c3ccc(Cl)c(Cl)c3)CC2)cc1 showed an XC50 of 674 nM.
O=C(Cc1cc(=O)oc2cc(O)ccc12)N1CCC(CN2CCC(c3c[nH]c4ccccc34)CC2)CC1 showed an XC50 of 870 nM.
Work on COc1ccc(C(=O)NCc2ccc(N)nc2C)cc1Nc1ncc(-c2cccc(N(C)C)c2)cn1 yielded an XC50 of 897 nM.
With O=C(Cc1c[nH]cn1)Nc1cccc(-c2cccc(-c3nc4ccccc4[nH]3)c2)c1 the XC50 was 1020 nM.
COC(=O)c1ccc(NC(=O)Nc2ccc(Cn3ncc(N4CCCNCC4)c(Cl)c3=O)cc2)cc1 was tested, and the XC50 was 605 nM.
For O=C(Nc1cccc(-c2cc3ccccc3[nH]2)c1)C1CCN(Cc2ccccc2O)CC1, the XC50 was 938 nM.
Work on CN(c1ccc(NC(=O)c2ccc(F)cc2)cc1)C1CCN(Cc2cccc(F)c2)C1 (stereo not given) yielded an XC50 of 1410 nM.
With CC(Cc1ccc(NC(=O)[C@@H](C)NCCc2cccc(Cl)c2)cc1)NCCc1cccc(Cl)c1 (stereo not given in full) the XC50 was 778 nM.
O=S(=O)(c1ccccc1OC(F)(F)F)C1CC2CCC(C1)N2S(=O)(=O)c1cccc(C(F)(F)F)c1 (stereo not given) was tested, and the XC50 was 665 nM.
Cc1nc(C)c(-c2ccc(-c3ccc(F)cc3)cc2)c(O)c1Br showed an XC50 of 1070 nM.
N#CN1CC[C@H](CS(=O)(=O)c2cccc(Br)c2)C1 was tested, and the XC50 was 874 nM.
In the case of CC(C)NCc1ccc(-c2ccc(-c3nc4cc(C(F)(F)F)ccc4[nH]3)s2)cc1, the XC50 is reported as 181 nM.
O=C(Nc1ccc(C(F)(F)F)cc1)c1cccc(S(=O)(=O)NC2CCN(Cc3ccccc3)C2)c1 (stereo not given) showed an XC50 of 1050 nM.
With COc1cc(C(=O)N2CCC(CCN3CCC4(CC3)CN(S(C)(=O)=O)c3ccccc34)CC2Cc2ccc(Cl)c(Cl)c2)cc(OC)c1OC (stereo not given) the XC50 was 843 nM.
CCc1cc(=O)[nH]c(-n2nc(C)cc2NC(=O)CC(c2ccccc2)c2ccccc2)n1 was tested, and the XC50 was 964 nM.
In the case of Cc1nc(NC2=NCN(CCCN3CCOCC3)CN2)nc2c(C)cccc12, the XC50 is reported as 1130 nM.
In the case of Cc1cc(C)c(CON2C(=N)N=C(N)NC2(C)C)cc1C, the XC50 is reported as 3.63 nM.
COc1cc(C)ccc1N1CCN(CCCCNC(=O)c2ccc(NC(=O)c3ccc(Cl)cc3)cc2)CC1 showed an XC50 of 700 nM.
For O=C(Cc1c[nH]cn1)Nc1cccc(-c2ccc(-c3nc4cc(F)ccc4[nH]3)cc2)c1, the XC50 was 806 nM.
In the case of Cn1cc(-c2ccnc3[nH]c(-c4cccc(CNC5CCC(O)CC5)c4)cc23)cn1 (stereo not given), the XC50 is reported as 903 nM.
In the case of CCOc1cc(C(=O)N[C@@H](Cc2ccccc2)[C@H](O)CNC(C)(C)c2cccc(OC)c2)cc(N2CCCS2(=O)=O)c1, the XC50 is reported as 224 nM.
In the case of Nc1nc(N)c2cc(CNc3ccc(Cl)c(Cl)c3)ccc2n1, the XC50 is reported as 1020 nM.
In the case of CCSc1ccc(C)cc1CON1C(N)=NC(N)=NC1(C)C, the XC50 is reported as 3.2 nM.
With CCN1CCN(c2ccc(Nc3ccnc4ccc(Br)cc34)cc2)CC1 the XC50 was 300 nM.
Compound CC(C)CC(NC(=O)c1cc2ccccc2s1)C(=O)N1CCCCCC1c1ccc(C(C)(C)C)cc1 (stereo not given) has an XC50 of 857 nM.
In the case of N[C@@H](CCNC1CCN(c2cccc(C(F)(F)F)c2)CC1)Cc1ccc(F)c(F)c1, the XC50 is reported as 1290 nM.
For COc1ccc(CNC2CCN(C)CC2)cc1-c1cccc(S(=O)(=O)NCc2ccccc2)c1, the XC50 was 723 nM.
In the case of Cn1cncc1C(=O)Nc1cccc(-c2ccc(-c3nc4ccccc4[nH]3)s2)c1, the XC50 is reported as 796 nM.
For CN1CCN(Cc2cccc(-c3ccc4c(Nc5ccc(Oc6cccnc6)cc5)ccnc4c3)c2)CC1, the XC50 was 192 nM.
With N=C(NCCCCCCNC(=N)NC(=N)c1ccc(Cl)cc1)NC(=N)c1ccc(Cl)cc1 the XC50 was 212 nM.
O=C(Nc1cc(C(F)(F)F)ccc1-n1cncn1)C1(c2ccccc2)CC1 showed an XC50 of 60.1 nM.
N#Cc1ccc(-c2ccc(C(=O)NCCCCN3CCC(c4ccc5c(c4OCc4ccncc4)CCCC5)CC3)cc2)cc1 showed an XC50 of 757 nM.
Compound COc1ccc(CC(C)NCC(O)c2cccc(Cl)c2F)cc1 (stereo not given) has an XC50 of 1080 nM.
With CCCOc1c(CCNCCCCNCCc2ccc3ccccc3c2OCCC)ccc2ccccc12 the XC50 was 482 nM.
Work on COc1ccc2ncc(F)c([C@@H](O)CN3CCC(NCc4ccc5c(c4)NCCS5)CC3)c2n1 yielded an XC50 of 504 nM.
With CCCc1cc(Cc2cnc(N)nc2N)cc(CCC)c1OCCCCC(=O)OCC the XC50 was 54.1 nM.
NC1CCN(Cc2cccc(-c3ccc(-c4nc5cc(C(F)(F)F)ccc5[nH]4)cc3)c2)C1 (stereo not given) showed an XC50 of 698 nM.
For Cc1ccc2[nH]ncc2c1N(CC1CCCCC1)c1ccnc(Nc2ccc(OCC(O)CN3CC=CCC3)cc2)n1 (stereo not given), the XC50 was 622 nM.
Cc1ccccc1C1CCN(C2CCC(NC(=O)/C=C/c3cccc(C(F)(F)F)c3)CC2)CC1 (stereo not given) gave an XC50 of 1520 nM.
COc1cc(OC)cc(C(=O)N2CCOC(CCN3CCC(c4ccccc4)CC3)(c3ccc(Cl)c(Cl)c3)C2)c1 (stereo not given) showed an XC50 of 442 nM.
CC(C)(C)c1ccc(NC(=O)c2ccc(CN3CCCN(Cc4ccc(F)cc4)CC3)cc2)cc1 was tested, and the XC50 was 1110 nM.
For CC1(C)N=C(N)N=C(N)C1c1ccc(Cl)cc1 (stereo not given), the XC50 was 259 nM.
Compound O=C(/C=C/c1ccc(Cl)c(Cl)c1)NCCCCCCN1CCN(C(=O)Nc2cc(Cl)nc(Cl)c2)CC1 has an XC50 of 784 nM.
Work on COc1ccc(C=C2SC(=O)N=C2Nc2ccccc2)c(OC)c1 yielded an XC50 of 470 nM.
COc1ccc(C=CC(=O)Nc2ccc(N3CCCC3)cc2)cc1 showed an XC50 of 1280 nM.
For COc1cc(CNC[C@@H](O)[C@H](Cc2ccccc2)NC(=O)c2cc(C3CCCC3)cc(N3CCCC3=O)c2)cc(OC)c1, the XC50 was 224 nM.
CCCNCc1ccc(-c2ccc(CN(CCOC)C(=O)/C=C/c3ccccc3C)cc2)nc1 was tested, and the XC50 was 903 nM.
COc1ccc2nccc([C@@H](O)CN3CCC(NC(=O)/C=C/c4ccc5ccccc5n4)CC3)c2c1 was tested, and the XC50 was 993 nM.
CCOC(=O)C1=C(C)N=c2sc(=Cc3cc(Cl)ccc3O)c(=O)n2C1c1cc(OC)c(OC)cc1Br (stereo not given) gave an XC50 of 993 nM.
Cc1ccc(-n2nc3ccc(NC(=O)c4ccc([N+](=O)[O-])o4)cc3n2)cc1C showed an XC50 of 397 nM.
With NC(=O)c1ccc(NCC(=O)Nc2cccc(-c3cccc(-c4nc5cc(C(F)(F)F)ccc5[nH]4)c3)c2)cc1 the XC50 was 270 nM.
In the case of COCCNCc1cccc(-c2ccc(CNC3CCN(Cc4ccccc4)CC3)cc2)c1, the XC50 is reported as 508 nM.
In the case of O=C(C=Cc1ccc(Cl)c(Cl)c1)NCCCCCN1CCC(CCCNS(=O)(=O)c2ccc(Br)cc2)CC1, the XC50 is reported as 1130 nM.
For CN(C)CCOc1ccc2c(c1)OC(C)(C)C=C2c1cccc2ccccc12, the XC50 was 785 nM.
c1cc(CN2CCC(CCN3CCCCC3)CC2)cc(-c2cccc(-c3nc4ccccc4[nH]3)c2)c1 showed an XC50 of 140 nM.
With Cc1ccc(C(C)C)cc1CON1C(=N)N=C(N)NC1(C)C the XC50 was 3.2 nM.
Oc1ccc(CCNc2nc(NCCCOc3cccc(-c4ccccc4)c3)nc(N3CCNCC3)n2)cc1 gave an XC50 of 1130 nM.
Work on N#Cc1ccc(NC(=O)c2ccc(Cc3ccc4c(c3)CCN(C3CCC3)CC4)cn2)cc1 yielded an XC50 of 1120 nM.
Cc1c(C(=O)C2CC2CN2CCC(N3CCCCC3)CC2)sc2ccccc12 (stereo not given) gave an XC50 of 1020 nM.
With COc1ccc(-c2nonc2NC(=O)c2cccc(Cl)c2)cc1OC the XC50 was 876 nM.
Oc1ccc2ccccc2c1C=NNc1nc(=Nc2ccccc2)[nH]c(=Nc2ccccc2)[nH]1 showed an XC50 of 667 nM.
Cc1cc(NC(=O)c2ccc(-c3ccccc3)cc2)no1 gave an XC50 of 1020 nM.
With O=S(=O)(c1ccc(Cl)cc1Cl)N1CCCCC(c2ccc(C(F)(F)F)cc2)=N1 the XC50 was 160 nM.
For CCOc1ccc(-c2nonc2NC(=O)c2ccccc2F)cc1OCC, the XC50 was 841 nM.
CC(C)=CC1C(C(=O)n2c(=N)[nH]c3ccccc32)C1(C)C (stereo not given) showed an XC50 of 193 nM.
Work on O=C(NCc1ccc(S(=O)(=O)N2CCC(CN3CCC(c4c[nH]c5ccccc45)CC3)CC2)s1)c1ccccc1 yielded an XC50 of 843 nM.
O=C(Nc1ccc2c(c1)CCC2)c1cccc(CN2CCCN(Cc3cccc(O)c3)CC2)c1 showed an XC50 of 1080 nM.
Work on CCn1ncc2c(N3CCCC3=O)cc(C(=O)N[C@@H](Cc3ccccc3)[C@H](O)CNC(C)(C)c3cccc(OC)c3)cc21 yielded an XC50 of 107 nM.
Work on N=C1N=C(N)NC2(CCCCC2)N1OCCOc1ccc(Cc2ccccc2)cc1 yielded an XC50 of 1130 nM.
Compound COc1cc(F)c2ncc(Cl)c(CCN3CCC(NCc4ccc5c(c4)NC(=O)CS5)CC3)c2c1 has an XC50 of 313 nM.
Compound CNC(=O)Cc1ccc(C(=O)Nc2cccc(-c3csc(-c4nc5ccccc5[nH]4)c3)c2)cc1 has an XC50 of 273 nM.
For COc1ccc(C(=O)C2CCN(CCCCNC(=O)c3ccc(NC(=O)c4cc(Cl)cc(Cl)c4)cc3)CC2)cc1, the XC50 was 173 nM.
With CC(=O)c1ccc(S(=O)(=O)N2CCC(C(=O)Nc3ccccc3N3CCCC3)CC2)cc1 the XC50 was 833 nM.
COc1cc(-c2nc3c4ccccc4c4ccccc4c3[nH]2)cc(OC)c1OC gave an XC50 of 848 nM.
Compound CC(=O)Nc1ccc(C(=O)Nc2ccc(-c3cccc(-c4nc5cc(F)ccc5[nH]4)c3)cc2)cn1 has an XC50 of 231 nM.
Cc1nc2ccc3ccc(CNc4ccc5c(c4)CN([C@H](CCC(=O)O)C(=O)O)C5=O)cc3c2c(=O)[nH]1 showed an XC50 of 860 nM.
With COc1cc2nc(N3CCC(CCCC4CCNCC4)CC3)nc(NCc3ccccn3)c2cc1OC the XC50 was 757 nM.
